Test results taken from patent publication US20110009332A1, “Therapeutic Treatment Of Wounds” (SOUTHWEST RESEARCH INSTITUTE, priority 2009, published 2011).
Where a SMILES comes first, the peptide text is derived from it. The star is where a group is joined. Cbz = O=C(OCc1ccccc1)*; OtBu = CC(C)(C)O*

System: TGF-β1
Assay: TGF-β1 gene expression (qPCR, normalized over 18S) in human dermal fibroblasts
Assay type: cell-based
Procedure: An examination of gene expression of TFG-β1 was conducted using a number of proteasome inhibitors including, proteasome inhibitor-1, curcumin, MG-132 and bortezomib. Human neonatal dermal fibroblasts (AllCells, Catalog No. HN006001) were maintained in Dulbecco's modified Eagle's medium (DMEM) supplemented with 10% fetal bovine serum. Early passage cells were plated at 2×10^4 cells/cm^2 and grown in humidified 5% CO2 at 37° C. for 24 hours. Spent media was replaced the following day with assay media including Proteasome inhibitor-1 was added in DMEM at 1 μM and 0.1 μM. Untreated cells were used as the control group. For the human osteogenesis PCR array, the experimental group was treated only at 1 μM. In addition, in separate trials, spent media was replace by assay media of curcumin added in DMEM at 10 μM and 100 μM, MG-132 in DMEM at 0.1 μM and 1 μM, and bortezomib in DMEM at 0.1 μm and 1 μM.
Phenol-chloroform extraction was performed to isolate the total RNA for real time polymerase chain reaction array. More specifically, the total RNA was prepared using TRI REAGENT (Ambion, product number 9738), wherein the total RNA was obtained from the human neonatal dermal fibroblasts. Note that isolation was performed as per the instructions provided with the TRI REAGENT. The RNA was used for subsequent quantitative polymerase chain reaction (qPRC) gene expression of TFG-β1 measured using hydrolysis probes (TAQMAN probes available from Applied Biosystems) as described further below.
Concentration and integrity of the obtained total RNA was assessed by absorbance in a spectrophotometer at 260 nm and 280 nm and by electrophoresis in 1% agarose with formaldehyde loading dye. For TAQMAN gene expression assays, cDNA was synthesized from 2 μg of total RNA using the High Capacity cDNA Reverse Transcription Kit (Applied Biosystems, product number 4368814), again following the protocol supplied with the kit. The resulting cDNA was diluted 1:10.
For TAQMAN gene expression, gene-specific fluorescent labeled TAQMAN primers for FAM-TFG-β1 (Applied Biosystems, product number Hs00998130.m1) and TAQMAN reference VIC-18S ribosomal RNA (Applied Biosystems, product number 4310893E) were used to target the gene of interest. A cocktail of universal master mix (Applied Biosystems, product number 4369016) was prepared individually for both set of primers which contained Taq Polymerase, dNTPs, and buffer. Template cDNA's were added separately to respective individual wells in triplicate samples. PCR was performed on StepOne Plus Real Time System instrument (Applied Biosystems). The amplification program consisted of 1 cycle of 95° C. with 10 minute hold (hot start) followed by 50 cycles of 95° C. with 15 second annealing hold and 1 minute 60° C. specified acquisition hold.
For human osteogenisis PCR array, total RNA was prepared using silica matrix purification using RNEASY MINI KIT (Qiagen, product number 74101) according to the manufacturer's recommendations. cDNA was synthesized from 1 μg of purified DNA-free RNA accordingly to RT^2First Strand Kit (SABiosciences, C-03). The resulting cDNA was diluted 1:30 and amplified. The procedure for the PCR array using real-time PCR is based on the RT^2 Profiler PCR array system instructions for Human Osteogenesis (SABiosciences, product number PAHS-026C). A cocktail reaction mix was setup as recommended by the PCR manufacturer (SABiosceiences, product number PA-012). PCR was performed using the same temperature parameters as used with the StepOne Plus Real Time System instrument. The Ct value of endogenous reference gene (i.e. 18s) was used to control for input RNA and then used to normalize target gene (i.e. TFG-β1) tested from the same cDNA sample ([…]), and then calibrated to an internal reference sample ([…]). Change in gene expression was determined by the expression 2̂-([…]). […]

[1] = 0.1 μM inhibitor, FIG. 30, non-treated 1.50 (MG132) / 1.43 (bortezomib)
[2] = 1 μM inhibitor, FIG. 30, non-treated 1.50 (MG132) / 1.43 (bortezomib)

SMILES: CC[C@H](C)[C@H](NC(=O)OCc1ccccc1)C(=O)N[C@@H](CCC(=O)OC(C)(C)C)C(=O)N[C@@H](C)C(=O)N[C@H](C=O)CC(C)C [PS-1, Z-Ile-Glu(OBu^t)-Ala-Leu-H] (Cbz-IE(OtBu)AL-aldehyde)
- TFG-β1/18 mRNA levels (0.1 μM PS-1, FIG. 28, nontreated 1.15, decrease relatively statistically insignificant): ~1.03 a.u.
- TFG-β1/18 mRNA levels (1.0 μM PS-1, FIG. 28, nontreated 1.15, decrease relatively statistically insignificant): ~1.11 a.u.

SMILES: COc1cc(/C=C/C(=O)CC(=O)/C=C/c2ccc(O)c(OC)c2)ccc1O [curcumin]
- TFG-β1/18 mRNA levels (10 μM curcumin, FIG. 29, non-treated 1.15): 0.644 a.u.
- TFG-β1/18 mRNA levels (100 μM curcumin, FIG. 29, non-treated 1.15): 1.53 a.u.

SMILES: CC(C)C[C@@H](C=O)NC(=O)[C@H](CC(C)C)NC(=O)[C@H](CC(C)C)NC(=O)OCc1ccccc1 [MG132] (Cbz-Leu-Leu-Leu-aldehyde)
- TFG-β1/18 mRNA levels [1]: 2.12 a.u.
- TFG-β1/18 mRNA levels [2]: 1.49 a.u.

SMILES: CC(C)C[C@H](NC(=O)[C@H](Cc1ccccc1)NC(=O)c1cnccn1)B(O)O [bortezomib]
- TFG-β1/18 mRNA levels [1]: 1.99 a.u.
- TFG-β1/18 mRNA levels [2]: 1.97 a.u.
